Results: patent US20020016346A1, “Method for enhancing outflow of aqueous humor in treatment of glaucoma” (The Regents University of California, a California …, priority 1994, published 2002)
Like-named read-outs stand apart in the source and are kept apart here.

What was measured:
Na+2Cl−K+ co-transporter = target: T1, Na+2Cl−K+ co-transporter (Oryctolagus cuniculus, UniProt P55015); experiment: Inhibition of short circuit current in perfused cortical thick ascending limb of the loop of Henle; format: cell-based, rabbit; settings: concentration blocking 50% of short circuit current
T1 construct: cotransporter system found in the cortical thick ascending limbs of the loop of Henle of mammals; from tissue; host or cells: dissected, perfused cortical thick ascending limb tubules of rabbit kidney
T1 sequence (P55015 1-1099): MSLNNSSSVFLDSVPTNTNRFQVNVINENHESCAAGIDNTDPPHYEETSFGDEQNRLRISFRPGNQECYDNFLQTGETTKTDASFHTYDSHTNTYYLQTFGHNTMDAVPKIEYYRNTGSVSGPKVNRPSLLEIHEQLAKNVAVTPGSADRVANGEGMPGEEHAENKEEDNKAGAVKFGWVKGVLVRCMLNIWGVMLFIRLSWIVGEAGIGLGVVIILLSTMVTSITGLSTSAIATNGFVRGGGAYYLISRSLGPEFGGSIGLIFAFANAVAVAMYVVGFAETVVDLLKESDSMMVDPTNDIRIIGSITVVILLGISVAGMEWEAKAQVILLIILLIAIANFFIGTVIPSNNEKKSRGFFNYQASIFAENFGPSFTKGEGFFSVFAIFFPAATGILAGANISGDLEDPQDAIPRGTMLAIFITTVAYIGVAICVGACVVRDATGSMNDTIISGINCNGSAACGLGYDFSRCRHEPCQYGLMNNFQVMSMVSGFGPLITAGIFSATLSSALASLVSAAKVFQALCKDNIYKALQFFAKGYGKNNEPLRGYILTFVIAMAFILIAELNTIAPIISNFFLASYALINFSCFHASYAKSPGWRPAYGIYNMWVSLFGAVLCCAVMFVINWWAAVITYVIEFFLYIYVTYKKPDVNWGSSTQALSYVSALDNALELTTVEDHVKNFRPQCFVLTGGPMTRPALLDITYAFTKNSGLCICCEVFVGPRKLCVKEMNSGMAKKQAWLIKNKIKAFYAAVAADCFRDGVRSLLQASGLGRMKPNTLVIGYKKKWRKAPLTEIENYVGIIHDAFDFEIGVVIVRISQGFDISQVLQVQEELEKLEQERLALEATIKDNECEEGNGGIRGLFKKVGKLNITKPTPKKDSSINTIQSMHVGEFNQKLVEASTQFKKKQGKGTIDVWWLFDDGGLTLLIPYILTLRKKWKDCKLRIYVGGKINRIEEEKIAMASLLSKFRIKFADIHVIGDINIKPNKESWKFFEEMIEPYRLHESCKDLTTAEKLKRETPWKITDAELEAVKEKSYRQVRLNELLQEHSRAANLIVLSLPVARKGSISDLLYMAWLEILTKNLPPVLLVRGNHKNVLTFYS
Source text: B. Burg et al. (Am J. Physiol. 210:1293-1298, 1966) as modified by […] Arch. 390:30-37, 1981) and […] et al. (Pflüger's Arch. 389:175-176, 1981), both of which are incorporated herein by reference in their entireties. In brief, this in vitro test uses the Na-2Cl^- K^+ cotransporter system found in the cortical thick ascending limbs of the loop of Henle of mammals, particularly rabbits, for example, female white New Zealand rabbits. The tubules are dissected and perfused according to the known techniques, but with the rate of perfusion through the lumen kept high (10-20 nl/min) to prevent changes in the ionic composition of the perfusate along the perfused tubule. As control perfusate, a solution containing (mM): NaCl 145; […] KH2PO4 0.4; MgCl2 1; Ca gluconate 1.3; and glucose 5 is used on both sides of the epithelium with pH adjusted to 7.4 The transepithelial potential (Vtc) is recorded continuously on both ends of the tubule. […] The ratio of both values ([…] the equivalent short circuit current Itc. There is a direct relationship between the decrease of Itc and the inhibition of the Na^+2Cl^-K^+ co-transporter by contact with the test compound ([…] et al., Klin. Wochenschr. 61:1019-1027, 1983). For each drug under study, dose-response curves are established by adding compounds at various concentrations to the luminal perfusate with at least three determinations for each concentration. […] Details of this method have been published previously in M. E. O'Donnell, J. Biol. Chem. 264:11559-11566, 1991, which is incorporated herein by reference in its entirety. An illustration of the use of this method is found in Example 1B of this application.

[1] = Lipophilicity (log P′), n-octanol/phosphate buffer pH 7.4 shake-flask or RP-HPLC; format: physicochemical
Description: The lipophilicity of a compound is expressed in terms of an octanol:water coefficient determined by the standard technique of radiolabelling the compound and introducing a small amount into equal volumes of octanol and tris buffer (50 mM, pH 7.4). Generally the lipophilicity (log P′) is expressed as the logarithm of the partition coefficient in n-octanol/phosphate buffer, pH 7.4 using the well known shake-flask method as described by Cloux, et al., J. Pharm. Belg., 43:141-151, 1973, which is incorporated herein by reference in its entirety. The coefficient of lipophilicity (log P′) of the compounds useful for topical application to decrease intra-ocular pressure is preferably at least 0.005, and more preferably at least 0.01.
The lipophilicity of the aqueous humor outflow-increasing compounds of this invention can also be determined using a reversed phase, high performance liquid chromatograph (RP-HPLC) system for determination of the log P′ of the drug as described in B. Masereel, et al. (J. Pharm. Pharmacol. 44:589-593, 1992), which is incorporated herein by reference in its entirety. Briefly, a reversed phase column (RP-18) is equilibrated with n-propanol/phosphate buffer, pH 7.4 at a ratio of 30:70). Compounds to be tested are dissolved and eluted with the same solution. A series of standards with a wide range of lipophilicity, as determined by the shake-flask method, is run and a calibration curve is established for each session. KNO3 is injected to determine the void volume and […] is determined, wherein tr is the drug retention time andot is the retention time of NO3-. Calibration curves are calculated using log P′ and log k′ values. Log P′ values of other compounds are obtained by interpolation of the standard curves.

Na—K—Cl cotransport = target: T2, Na—K—Cl cotransport (Bos taurus, UniProt F1MS08); experiment: K influx (86Rb) in bovine TM cell monolayers; format: cell-based; settings: bovine TM cells; VP 100 nM, NE 10 μM, Ach 1 μM, cAMP 50 μM, cGMP 50 μM, A23187 1 μM, PMA 10 nM, Ca-free medium plus 5 μM BAPTA-AM; control 25.6 ± 0.71
T2 sequence (F1MS08 1-1204): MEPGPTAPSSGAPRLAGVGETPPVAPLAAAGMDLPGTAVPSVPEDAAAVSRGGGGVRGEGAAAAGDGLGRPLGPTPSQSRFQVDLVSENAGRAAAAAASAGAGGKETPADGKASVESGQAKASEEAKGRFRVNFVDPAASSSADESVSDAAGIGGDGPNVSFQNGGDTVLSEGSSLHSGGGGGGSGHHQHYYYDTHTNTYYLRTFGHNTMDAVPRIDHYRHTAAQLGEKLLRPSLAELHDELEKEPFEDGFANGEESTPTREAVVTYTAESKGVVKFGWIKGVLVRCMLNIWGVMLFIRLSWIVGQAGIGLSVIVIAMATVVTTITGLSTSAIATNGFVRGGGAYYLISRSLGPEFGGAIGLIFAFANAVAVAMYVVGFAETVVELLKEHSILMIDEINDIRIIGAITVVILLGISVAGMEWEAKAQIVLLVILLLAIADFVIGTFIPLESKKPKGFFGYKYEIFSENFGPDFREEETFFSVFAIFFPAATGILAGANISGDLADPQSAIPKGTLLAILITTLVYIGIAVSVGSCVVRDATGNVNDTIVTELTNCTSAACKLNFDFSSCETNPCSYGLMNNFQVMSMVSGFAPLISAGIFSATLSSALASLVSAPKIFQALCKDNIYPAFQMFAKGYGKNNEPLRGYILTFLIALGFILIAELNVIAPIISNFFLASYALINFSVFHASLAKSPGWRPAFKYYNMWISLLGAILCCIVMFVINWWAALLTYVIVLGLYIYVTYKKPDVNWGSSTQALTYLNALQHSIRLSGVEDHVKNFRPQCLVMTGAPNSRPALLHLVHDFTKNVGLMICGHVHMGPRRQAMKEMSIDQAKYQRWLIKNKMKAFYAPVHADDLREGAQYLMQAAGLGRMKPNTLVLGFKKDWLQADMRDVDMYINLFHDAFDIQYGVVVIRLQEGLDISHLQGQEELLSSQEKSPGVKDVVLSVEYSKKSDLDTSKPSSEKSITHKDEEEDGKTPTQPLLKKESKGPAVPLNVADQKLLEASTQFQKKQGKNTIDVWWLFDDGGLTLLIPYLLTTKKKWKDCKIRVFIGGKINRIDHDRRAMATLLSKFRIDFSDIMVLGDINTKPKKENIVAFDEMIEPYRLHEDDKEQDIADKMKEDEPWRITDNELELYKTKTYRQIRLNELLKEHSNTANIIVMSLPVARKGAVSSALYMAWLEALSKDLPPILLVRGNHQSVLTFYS
Description: Details of this method have been published previously (O'Donnell, M. E., supra, 1989). Briefly, bovine or human TM cell monolayers on 24 well plates were equilibrated for 10 minutes at 37° C. in a Hepes-buffered minimal essential medium (MEM) containing (in mM): 144 Na, 147 Cl, 5.8 K, 1.2 Ca, 4.2 HCO3, 0.4 H2PO4, […], 0.4 SO4, 5.6 glucose and 20 Hepes. […] The assay medium also contained ^86Rb (1 μCi/ml) (Dupont New England Nuclear, Boston, Mass.). The assay was terminated by rinsing the wells with ice-cold isotonic MgCl2, then extracting the contents with 0.2% sodium dodecyl sulfate (SDS), and determining the amount of radioactive contents by liquid scintillation. Osmolarities of all preincubation and assay media were verified by osmometry (Model 3W2, Advanced Instruments, Norwood, Mass.).
The effects of hormones, neurotransmitters and second messengers on Bumetanide-sensitive K influx of bovine trabecular meshwork cells were assessed using the procedures of Example 1. […] The control is the Hepes-buffered medium containing Na, K, Cl, CA and other ions as described in Example 1B. […] The data represent the mean values±SEM of quadruplicate determinations from two experiments.

SMILES	IC50 (Na+2Cl−K+ co-transporter; read-out: IC50)	logP [1]	BUMETANIDE-SENSITIVE K INFLUX (Na—K—Cl cotransport)	IC50 (Na+2Cl−K+ co-transporter)
O=C(NS(=O)(=O)c1cnccc1NC1CCCCC1)N1CCCCC1 [Compound 21]	320 nM	0.62	–	–
O=C(NC1CCCCCCC1)NS(=O)(=O)c1cnccc1NC1CCCCCCC1 [Compound 17]	560 nM	2.7	–	–
O=S(=O)(NC(=S)NC1CCCCC1)c1cnccc1NC1CCCCCC1 [Compound 20]	790 nM	1.79	–	–
Cc1cccc(Nc2ccncc2S(=O)(=O)NC(=O)NC(C)C)c1 [Compound 7]	200 nM	0.45	–	–
O=C(NS(=O)(=O)c1cnccc1NC1CCCCCCC1)N1CCCCC1 [Compound 23]	150 nM	1.65	–	–
O=C(NC1CCCCC1)NS(=O)(=O)c1cnccc1NC1CCCCC1 [Compound 9]	19000 nM	1.33	–	–
O=C(NC1CCCCCC1)NS(=O)(=O)c1cnccc1NC1CCCCCCC1 [Compound 14]	2000 nM	2.45	–	–
O=C(NS(=O)(=O)c1cnccc1NC1CCCCCC1)N1CCCCC1 [Compound 22]	250 nM	1.24	–	–
CC(=O)OCOC(=O)CN(CC(=O)OCOC(C)=O)c1ccccc1OCCOc1ccccc1N(CC(=O)OCOC(C)=O)CC(=O)OCOC(C)=O [Ca-free, 1,2-bis (o-aminophenoxy)ethane-N,N,N′,N-tetraacetic acid acetoxymethyl ester]	–	–	4.9 ± 1.06 μmol/g protein/min	–
O=C(NC1CCCCC1)NS(=O)(=O)c1cnccc1NC1CCCCCCCCCCC1 [Compound 18]	> 100000 nM	3.45	–	inactive
O=C(NC1CCCCCC1)NS(=O)(=O)c1cnccc1NC1CCCCC1 [Compound 12]	9500 nM	1.72	–	–
O=C(NC1CCCCC1)NS(=O)(=O)c1cnccc1NC1CCCCCC1 [Compound 10]	3500 nM	1.67	–	–
O=C(NC1CCCCCCC1)NS(=O)(=O)c1cnccc1NC1CCCCC1 [Compound 15]	1400 nM	2.07	–	–
O=C(NC1CCCCCC1)NS(=O)(=O)c1cnccc1NC1CCCCCC1 [Compound 13]	2800 nM	2.06	–	–
O=C(NC1CCCCC1)NS(=O)(=O)c1cnccc1NC1CCCCCCC1 [Compound 11]	470 nM	2.05	–	–
O=C(NC1CCCCCCC1)NS(=O)(=O)c1cnccc1NC1CCCCCC1 [Compound 16]	1700 nM	2.44	–	–
CC(C)NC(=O)NS(=O)(=O)c1cnccc1NC1CCCCC1 [Compound 8]	700 nM	0.58	–	–
CC(C)NC(=S)NS(=O)(=O)c1cnccc1NC1CCCCCC1 [Compound 19]	1300 nM	0.96	–	–
